{"source": "patent US20190070140A1", "about": "“COMPOSITION COMPRISING PROTECTIN DX AS ACTIVE INGREDIENT FOR PREVENTING OR TREATING HYPERLIPIDEMIA OR FATTY LIVER DISEASE” (Solvit P&F, priority 2017, published 2019)", "test_system": "adiponectin", "assay": "Adiponectin level in blood serum of HFD mice", "format": "in vivo, mouse", "details": "PDX i.p. 1 μg/mice/day for 8 weeks, FIG. 5E", "protocol": "The present study has received the approval of the Institutional Animal Review Committee (Institutional Animal Care and Use Committee in Korea University, Seoul, Korea). The animal experiment was conducted according to the Guide for Care and Use of Laboratory Animals (NH publication, 8th Ed., 2011). A control group and a group of male C57BL/6J(B6) mice at 8 weeks of age were subjected to a normal diet (ND, Brogaarden, Gentofte, Denmark) and a high fat diet (HFD, Research Diets, New Brunswick, N.J., USA) for 8 weeks, respectively. The HFD (high fat diet) group was provided with intra-peritoneal injection of PDX for 8 weeks (1 μg/mice/day). An ethanol injection group was used as a control group.", "data": [{"smiles": "CC/C=C\\C[C@H](O)/C=C/C=C\\C=C\\[C@@H](O)C/C=C\\C/C=C\\CCC(=O)O", "note": "[PDX, 10S,17S-dihydroxy-docosa-4Z,7Z,11E,13Z,15E,19Z-hexaeonic acid]", "values": [{"measurement": "level of adiponectin in blood serum", "value": "increased"}]}]}
